Laboratory results reported in the supplement of paper PMC10307832.

Legend:
Assay in all cases: relative viability (nuclei count vs DMSO), 5 days (fraction); higher = more cells survive
[1] = compound: C/C(=N\NC(=S)N1CCC1)/C2=CC=CC=N2 + CCNC(=O)c1noc(-c2cc(C(C)C)c(O)cc2O)c1-c1ccc(CN2CCOCC2)cc1 [Luminespib] (partner 0.01 µM)
Procedure, shortened: (§1)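 Lung cancer cell lines in 1536-well plates got either a single drug or a fixed anchor-drug dose together with five library-drug doses (not always all listed) in √10 steps, by pin tool, on the day after seeding. Nuclei were counted after 5 days, and relative viability is the treated-to-vehicle ratio of nuclei counts. Values are medians of duplicate plates.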

[2] = compound: C/C(=N\NC(=S)N1CCC1)/C2=CC=CC=N2 + C[C@]1(O)C[C@@H](c2nc(-c3ccc4ccc(-c5ccccc5)nc4c3)c3c(N)nccn32)C1 [Linsitinib] (partner 1 µM)
Procedure, shortened: as §1

[3] = compound: C/C(=N\NC(=S)N1CCC1)/C2=CC=CC=N2 + CS(=O)(=O)CCNCc1ccc(-c2ccc3ncnc(Nc4ccc(OCc5cccc(F)c5)c(Cl)c4)c3c2)o1 [Lapatinib] (partner 2 µM)
Procedure, shortened: as §1

[4] = compound: C/C(=N\NC(=S)N1CCC1)/C2=CC=CC=N2 + COc1cccc2cc(-c3nc([C@H]4CC[C@H](C(=O)O)CC4)n4ncnc(N)c34)[nH]c12 [OSI-027] (partner 0.5 µM)
Procedure, shortened: as §1

| Cell Line | relative viability ([1]; first compound 0.05 µM) | relative viability ([1]; first compound 0.1581 µM) | relative viability ([1]; first compound 0.5 µM) | relative viability ([1]; first compound 1.581 µM) | relative viability ([1]; first compound 5 µM) | relative viability ([2]; first compound 0.05 µM) | relative viability ([2]; first compound 0.1581 µM) | relative viability ([2]; first compound 0.5 µM) | relative viability ([2]; first compound 1.581 µM) | relative viability ([2]; first compound 5 µM) | relative viability ([3]; first compound 0.05 µM) | relative viability ([3]; first compound 0.1581 µM) | relative viability ([3]; first compound 0.5 µM) | relative viability ([3]; first compound 1.581 µM) | relative viability ([3]; first compound 5 µM) | relative viability ([4]; first compound 0.05 µM) | relative viability ([4]; first compound 0.1581 µM) | relative viability ([4]; first compound 0.5 µM) | relative viability ([4]; first compound 1.581 µM) | relative viability ([4]; first compound 5 µM) |
| --- | --- | --- | --- | --- | --- | --- | --- | --- | --- | --- | --- | --- | --- | --- | --- | --- | --- | --- | --- | --- |
| UMC-11 | 0.207 | 0.194 | 0.199 | 0.184 | 0.176 | 0.369 | 0.238 | 0.205 | 0.169 | 0.161 | 0.201 | 0.195 | 0.165 | 0.145 | 0.134 | 0.235 | 0.186 | 0.183 | 0.181 | 0.142 |
| ABC-1 | 0.224 | 0.264 | 0.291 | 0.145 | 0.316 | 0.247 | 0.239 | 0.24 | 0.221 | 0.207 | 0.475 | 0.513 | 0.495 | 0.459 | 0.456 | 0.257 | 0.191 | 0.239 | 0.226 | 0.2 |
| A-427 | 0.153 | 0.147 | 0.139 | 0.155 | 0.155 | 0.18 | 0.687 | 0.148 | 0.157 | 0.139 | 0.138 | 0.149 | 0.138 | 0.115 | 0.139 | 0.172 | 0.154 | 0.135 | 0.165 | 0.125 |
| LCLC-97TM1 | 0.415 | 0.623 | 0.109 | 0.136 | 0.151 | 0.117 | 0.176 | 0.1 | 0.105 | 0.108 | 0.0934 | 0.101 | 0.0997 | 0.0662 | 0.107 | 0.111 | 0.175 | 0.185 | 0.138 | 0.158 |
| HCC-15 | 0.128 | 0.0546 | 0.119 | 0.0758 | 0.072 | 0.237 | 0.416 | 0.103 | 0.102 | 0.0909 | 0.082 | 0.078 | 0.0841 | 0.0904 | 0.0765 | 0.079 | 0.0907 | 0.0888 | 0.0899 | 0.0898 |
| NCI-H647 | 0.0621 | 0.051 | 0.0851 | 0.0853 | 0.0804 | 0.148 | 0.103 | 0.159 | 0.0971 | 0.0901 | 0.139 | 0.0972 | 0.11 | 0.0821 | 0.0828 | 0.0818 | 0.107 | 0.109 | 0.117 | 0.0913 |
| SW 1573 | 0.0763 | 0.116 | 0.104 | 0.0921 | 0.0745 | 0.0916 | 0.123 | 0.113 | 0.152 | 0.0935 | 0.164 | 0.17 | 0.182 | 0.118 | 0.109 | 0.0449 | 0.0562 | 0.134 | 0.065 | 0.0544 |
| NCI-H1651 | 0.13 | 0.157 | 0.127 | 0.0971 | 0.138 | 0.131 | 0.126 | 0.122 | 0.0894 | 0.0655 | 0.117 | 0.119 | 0.131 | 0.0681 | 0.0861 | 0.152 | 0.165 | 0.13 | 0.0837 | 0.093 |
| NCI-H1792 | 0.23 | 0.187 | 0.176 | 0.169 | 0.157 | 0.366 | 0.261 | 0.119 | 0.115 | 0.066 | 0.371 | 0.38 | 0.179 | 0.193 | 0.104 | 0.417 | 0.301 | 0.25 | 0.248 | 0.205 |
